Calls of active or inactive are those of the source.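 The calls were made as follows: active = mean IC50 below 10 µM; inactive = the rest.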

For orientation: IC50 means the point on the concentration scale where inhibition reaches its midpoint.

Apelin receptor (Homo sapiens), sequence (P35414 whole entry, looked up): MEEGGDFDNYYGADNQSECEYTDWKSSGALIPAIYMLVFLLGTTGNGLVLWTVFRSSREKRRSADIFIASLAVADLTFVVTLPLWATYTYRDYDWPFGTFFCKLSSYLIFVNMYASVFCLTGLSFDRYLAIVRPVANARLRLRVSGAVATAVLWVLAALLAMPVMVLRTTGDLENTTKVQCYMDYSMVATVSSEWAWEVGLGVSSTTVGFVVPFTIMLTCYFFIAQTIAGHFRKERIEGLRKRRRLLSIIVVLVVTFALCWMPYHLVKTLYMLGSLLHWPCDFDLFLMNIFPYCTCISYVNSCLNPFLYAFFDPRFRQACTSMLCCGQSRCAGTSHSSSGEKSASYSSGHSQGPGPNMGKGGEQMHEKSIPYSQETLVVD

The test has as its target Apelin receptor (Homo sapiens) (UniProt P35414). The test can be described thus: apelin receptor inhibitor analogs – cell-based, luminescence, set 2, SAR follow-up (AID 488803). The following applies: CHO-K1 APJ PathHunter beta-arrestin, antagonist.
For the compound `O=C(Oc1coc(CSc2ncccn2)cc1=O)c1cccc([N+](=O)[O-])c1`, the IC50 entry is “inactive”.

As to `Cc1ccnc(SCc2cc(=O)c(OC(=O)c3cc([N+](=O)[O-])ccc3Cl)co2)n1`, the IC50 entry is “inactive”.

Take `CC1(C)CC2(CC(c3ccc(Cl)cc3)c3ccc(O)cc3O2)NC(=S)N1` (stereo not drawn): the IC50 entry is “inactive”.

Turning to `Cc1ccc(C)c(NCC(O)c2ccc(Cl)cc2)c1` (stereo not drawn), the IC50 was > 79 µM (inactive).

`COc1ccc(C(=O)Oc2coc(CSc3ncccn3)cc2=O)cc1`: the IC50 was > 79 µM (inactive).

For the compound `Cc1ccnc(SCc2cc(=O)c(OC(=O)c3cccc(Cl)c3)co2)n1`, the IC50 is > 79 µM (inactive).

For `O=C(Oc1coc(CSc2ncccn2)cc1=O)c1ccc(S(=O)(=O)N2CCCC2)cc1`, the IC50 is > 79 µM (inactive).

Take `C=CCOc1cccc(CSc2nccc(C)n2)c1`: the IC50 was > 79 µM (inactive).

As for `Cc1ccc(NCC(=O)c2ccccc2)cc1`, the IC50 is 2.53 µM.

As to `COc1ccccc1NCC(O)c1ccc(Cl)cc1` (stereo not drawn), the IC50 was > 79 µM (inactive).

`C=CCOc1ccc(CSc2nc(C)cc(C)n2)cc1OC`: the IC50 was > 79 µM (inactive).

Take `O=C(Oc1coc(CSc2ncccn2)cc1=O)c1ccc(S(=O)(=O)N2CCOCC2)cc1`: the IC50 was > 79 µM (inactive).

In the case of `Cc1ccnc(SCc2cc(=O)c(OC(=O)c3ccc(C#N)cc3)co2)n1`, the IC50 is 8.51 µM.

Consider `Cc1cccc(C2CC3(CC(C)(C)NC(=O)N3)Oc3cc(O)c(Cl)cc32)c1` (stereo not drawn), for which the IC50 was > 79 µM (inactive).

Regarding `Cc1cc(C)nc(SCc2ccc(O)c(Cl)c2)n1`, the IC50 is > 79 µM (inactive).

As to `Cc1ccccc1NCC(=O)c1ccc(Cl)cc1`, the IC50 was 1.42 µM.

With `COc1cc(CSc2nc(C)cc(C)n2)ccc1O`, the IC50 was > 79 µM (inactive).

Turning to `O=C(O)CN1C(=O)C(=O)c2ccccc21`, the IC50 was > 79 µM (inactive).

Take `Cc1ccc(N=C2C(=O)Nc3ccccc32)cc1`: the IC50 entry is “inactive”.

For the compound `O=C(Oc1coc(CSc2ncccn2)cc1=O)c1ccc(Cl)cc1`, the IC50 entry is “inactive”.

`Cc1ccc(C(=O)Oc2coc(CSc3ncccn3)cc2=O)cc1[N+](=O)[O-]`: the IC50 is 7.25 µM.

As for `O=C(Oc1coc(CSc2ncccn2)cc1=O)c1ccc(S(=O)(=O)N2CCCCC2)cc1`, the IC50 is > 79 µM (inactive).

With `CC1(C)CC2(CC(c3ccccc3Cl)c3cc(Cl)c(OC(=O)C4CC4)cc3O2)NC(=S)N1` (stereo not drawn), the IC50 result is “inactive”.

Take `Cc1cc(C)nc(SCc2cc(=O)c(OC(=O)c3cccc([N+](=O)[O-])c3C)co2)n1`: the IC50 is > 79 µM (inactive).

`Cc1c(O)ccc2c1OC1(CC2c2ccccc2Cl)CC(C)(C)NC(=S)N1` (stereo not drawn): the IC50 was > 79 µM (inactive).

`O=C(Oc1coc(CSc2ncccn2)cc1=O)c1ccccc1`: the IC50 was > 79 µM (inactive).

With `Cc1cc(C)nc(SCc2cc(=O)c(OC(=O)c3ccc(C)c([N+](=O)[O-])c3)co2)n1`, the IC50 result was “inactive”.

For `Oc1cccc(CSc2ncccn2)c1`, the IC50 was > 79 µM (inactive).

With `Cc1cc(C)nc(SCc2ccc(OC(=O)c3ccccc3)c(Cl)c2)n1`, the IC50 was > 79 µM (inactive).

Turning to `Cc1ccnc(SCc2cc(=O)c(OCc3ccccc3)co2)n1`, the IC50 was > 79 µM (inactive).

Take `CC1(C)CC2(CC(c3ccc(F)cc3)c3ccc(O)cc3O2)NC(=S)N1` (stereo not drawn): the IC50 was > 79 µM (inactive).

For `CC1(C)CC2(CC(c3ccccc3Cl)c3ccc(OC(=O)c4ccccc4)cc3O2)NC(=S)N1` (stereo not drawn), the IC50 result was “inactive”.

On to `C=CCSC1=NC2(CC(c3ccccc3)c3c(C)cc(O)cc3O2)CC(C)(C)N1` (stereo not drawn), for which the IC50 was > 79 µM (inactive).

On to `Cc1ccnc(SCc2cc(=O)c(OC(=O)c3ccc(S(=O)(=O)N4CCCC4)cc3)co2)n1`, for which the IC50 is > 79 µM (inactive).

With `O=C(Oc1coc(CSc2ncccn2)cc1=O)c1ccc(Br)cc1`, the IC50 result is “inactive”.

In the case of `COc1cc(C(=O)Oc2coc(CSc3ncccn3)cc2=O)c([N+](=O)[O-])cc1OC`, the IC50 was > 79 µM (inactive).

Turning to `Cc1ccnc(SCc2cc(=O)c(OC(=O)c3ccccc3C)co2)n1`, the IC50 is > 79 µM (inactive).

`Cc1cc(C)nc(SCc2cc(=O)c(OC(=O)c3ccc(S(=O)(=O)N(C)C)cc3)co2)n1`: the IC50 was > 79 µM (inactive).

For the compound `Cc1c(O)ccc2c1OC1(CC2c2ccccc2Cl)CC(C)(C)NC(=O)N1` (stereo not drawn), the IC50 was > 79 µM (inactive).

Consider `Cc1cc(C)nc(SCc2cc(=O)c(OC(=O)c3cc([N+](=O)[O-])ccc3Cl)co2)n1`, for which the IC50 result was “inactive”.

With `CSc1cccc(N=C2C(=O)Nc3ccccc32)c1`, the IC50 was 9.84 µM.

On to `COc1ccc(NC2C(=O)Nc3ccccc32)cc1` (stereo not drawn), for which the IC50 is > 79 µM (inactive).

For `C=CCOc1ccc(COc2ccccc2)cc1`, the IC50 was > 79 µM (inactive).

On to `Cc1ccnc(SCc2cc(=O)c(OC(=O)c3cccc([N+](=O)[O-])c3)co2)n1`, for which the IC50 result was “inactive”.

Regarding `CC(=O)Oc1cc2c(cc1Cl)C(c1ccccc1Cl)CC1(CC(C)(C)NC(=S)N1)O2` (stereo not drawn), the IC50 was > 79 µM (inactive).

Regarding `CN(C)S(=O)(=O)c1ccc(C(=O)Oc2coc(CSc3ncccn3)cc2=O)cc1`, the IC50 is > 79 µM (inactive).

With `COc1ccc(C2CC3(CC(C)(C)NC(=S)N3)Oc3cc(OC(C)=O)cc(C)c32)cc1` (stereo not drawn), the IC50 result is “inactive”.

`Cc1ccnc(SCc2cc(=O)c(OC(=O)c3ccc(F)cc3)co2)n1`: the IC50 is > 79 µM (inactive).

Consider `Cc1ccnc(SCc2cc(=O)c(OC(=O)c3ccccc3Cl)co2)n1`, for which the IC50 entry is “inactive”.

Consider `O=c1cc(CSc2ccccc2)occ1O`, for which the IC50 is > 79 µM (inactive).

Regarding `Cc1ccnc(SCc2cc(=O)c(OC(=O)c3ccc(C)c([N+](=O)[O-])c3)co2)n1`, the IC50 was 4.7 µM.

Consider `N#Cc1ccc(C(=O)Oc2coc(CSc3ncccn3)cc2=O)cc1`, for which the IC50 was 6.59 µM.

For the compound `Cc1ccnc(SCc2cccc(O)c2)n1`, the IC50 is > 79 µM (inactive).

With `CC(C)Oc1ccc(C(=O)Oc2coc(CSc3ncccn3)cc2=O)cc1`, the IC50 was > 79 µM (inactive).

Regarding `C=CCSC1=NC2(CC(c3ccc(C)cc3)c3c(C)cc(OC(C)=O)cc3O2)CC(C)(C)N1` (stereo not drawn), the IC50 entry is “inactive”.

For the compound `Cc1ccccc1C1CC2(CC(C)(C)NC(=S)N2)Oc2cc(O)c(Cl)cc21` (stereo not drawn), the IC50 entry was “inactive”.

Take `CC(C)(C)c1ccc(C(=O)Oc2coc(CSc3ncccn3)cc2=O)cc1`: the IC50 was > 79 µM (inactive).

In the case of `Cc1ccnc(SCc2cc(=O)c(OC(=O)c3ccc(Cl)cc3)co2)n1`, the IC50 was > 79 µM (inactive).

Consider `Cc1ccnc(SCc2cc(=O)c(OC(=O)c3ccco3)co2)n1`, for which the IC50 is > 79 µM (inactive).

In the case of `Cc1cc(C)nc(SCc2cc(=O)c(OC(=O)c3cc(Cl)ccc3[N+](=O)[O-])co2)n1`, the IC50 is > 79 µM (inactive).

As to `O=C(Oc1coc(CSc2ncccn2)cc1=O)c1ccc(Cl)c([N+](=O)[O-])c1`, the IC50 is 6.2 µM.

For the compound `COc1ccc(C2CC3(CC(C)(C)NC(=S)N3)Oc3cc(O)cc(C)c32)cc1` (stereo not drawn), the IC50 entry is “inactive”.

On to `COc1ccccc1NC(=O)CN1C(=O)C(=O)c2ccccc21`, for which the IC50 result is “inactive”.

As for `Cc1ccnc(SCc2cc(=O)c(OC(=O)c3ccc([N+](=O)[O-])cc3)co2)n1`, the IC50 was 4.32 µM.

On to `Cc1ccnc(SCc2cc(=O)c(OC(=O)c3ccc(C(F)(F)F)cc3)co2)n1`, for which the IC50 entry was “inactive”.

For `Cc1ccc(NCC(O)c2ccccc2)cc1` (stereo not drawn), the IC50 is > 79 µM (inactive).

Regarding `O=C(Oc1coc(CSc2ncccn2)cc1=O)c1ccc(-c2ccccc2)cc1`, the IC50 is > 79 µM (inactive).

With `Cc1cc(C)nc(SCc2cc(=O)c(OC(=O)c3ccc(Cl)c([N+](=O)[O-])c3)co2)n1`, the IC50 was 5.45 µM.
